Measured values published in patent US11779019B2, “Composition made from polyol(s) and sterol(s) for use in the agricultural field” (ELICIT PLANT, priority 2017, dated 2023).

Test system: parsley (Petroselinum crispum)
Test: Resistance of parsley to flooding (abiotic) stress after watering with sample solutions
Assay type: in vivo
Details: potted parsley, watering every three days with 40 ml of 97% water+3% of the sample, observed after 18 days, vs water control
Description: The effectiveness of each combination on the plants tolerance to abiotic stress is analyzed.
Before the treatment all the leaves of the parsley plants are cut off.
This abundant watering is intended to mimic a flooding stress.
Each batch consists of four pots.
After 18 days the plants are observed, and pictures are taken.

SMILES: CC[C@H](CC[C@@H](C)[C@H]1CC[C@H]2[C@@H]3CC=C4C[C@@H](O)CC[C@]4(C)[C@H]3CC[C@]12C)C(C)C [A, beta-sitosterol]
- effect on the plants' tolerance to stress (flooding stress): All the samples, except the beta sitosterol alone (sample A), show a positive effect
